Assay results taken from patent US6737383B1, “Herbicidal oxadiazolidines” (priority 1999, dated 2004).

What was measured:
[1] = tested on: pigweed; experiment: Test B pre/postemergence pigweed; format: in vivo, Amaranthus retroflexus
Outline: (§1)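 Herbicidal effect was estimated by eye on a ten-point control scale after plants spent twelve to sixteen days in a greenhouse following soil or foliar treatment. Foliar sprays targeted plants at one to four leaves; all doses were formulated in a non-phytotoxic solvent with surfactant.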

[2] = tested on: crabgrass; experiment: Test B pre/postemergence crabgrass; format: in vivo, Digitaria sanguinalis
Outline: as §1

[3] = tested on: smallflower flatsedge; experiment: Test B flood test smallflower flatsedge; format: in vivo, Cyperus difformis
Outline: (§2)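 Flood test on plants grown to the 2-leaf stage; treated plants kept in greenhouse twelve to sixteen days, then visually rated against controls on a 0 (no effect) to 10 (complete control) scale.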

[4] = tested on: cocklebur; experiment: Test B pre/postemergence cocklebur; format: in vivo, Xanthium strumarium
Outline: as §1

[5] = tested on: wild oat; experiment: Test B pre/postemergence wild oat; format: in vivo, Avena fatua; settings: for Plant response rating, Wild oats: Rate 250 g/ha
Outline: as §1

[6] = tested on: bedstraw; experiment: Test B pre/postemergence bedstraw; format: in vivo, Galium aparine
Outline: as §1

[7] = tested on: rice; experiment: Test B flood test rice; format: in vivo, Oryza sativa
Outline: as §2

[8] = tested on: blackgrass; experiment: Test B pre/postemergence blackgrass; format: in vivo, Alopecurus myosuroides
Outline: as §1

[9] = tested on: velvetleaf; experiment: Test B pre/postemergence velvetleaf; format: in vivo, Abutilon theophrasti; settings: for Plant response rating, Velvetleaf: Rate 250 g/ha
Outline: as §1

[10] = tested on: wheat; experiment: Test B pre/postemergence wheat; format: in vivo, Triticum aestivum; settings: for Plant response rating, Wheat: Rate 250 g/ha
Outline: as §1

[11] = tested on: corn; experiment: Test B pre/postemergence corn; format: in vivo, Zea mays
Outline: as §1

[12] = tested on: morningglory; experiment: Test B pre/postemergence morningglory; format: in vivo, Ipomoea hederacea
Outline: as §1

[13] = tested on: soybean; experiment: Test B pre/postemergence soybean; format: in vivo, Glycine max
Outline: as §1

[14] = tested on: surinam grass; experiment: Test B pre/postemergence surinam grass; format: in vivo, Brachiaria decumbens
Outline: as §1

[15] = tested on: bamyardgrass; experiment: Test B flood test barnyardgrass; format: in vivo, Echinochloa crus-galli
Outline: as §2

[16] = tested on: giant foxtail; experiment: Test B pre/postemergence giant foxtail; format: in vivo, Setaria faberii
Outline: as §1

[17] = Postemergence, Rate 125 g/ha, scale of 0 to 10 where 0 is no effect and 10 is complete control
[18] = Preemergence, Rate 62 g/ha, scale 0 to 10 (0 no effect, 10 complete control)
[19] = Preemergence, Rate 125 g/ha, scale 0 to 10 (0 no effect, 10 complete control)
[20] = Preemergence, Rate 250 g/ha, scale of 0 to 10 where 0 is no effect and 10 is complete control
[21] = Preemergence, Rate 500 g/ha, scale 0 to 10 (0 no effect, 10 complete control)
[22] = Rate 62 g/ha, Postemergence, scale of 0 to 10 where 0 is no effect and 10 is complete control
[23] = Rate 250 g/ha, Postemergence, scale 0 to 10, 0 is no effect, 10 is complete control
[24] = Rate 500 g/ha, Postemergence, scale 0 to 10, 0 no effect, 10 complete control
[25] = Postemergence, Rate 250 g/ha, scale 0 to 10, 0 no effect, 10 complete control
[26] = Postemergence (flood test species), Rate 125 g/ha, scale of 0 to 10 where 0 is no effect and 10 is complete control
[27] = Rate 62 g/ha, Postemergence section, flood test species, scale of 0 to 10 where 0 is no effect and 10 is complete control
[28] = Rate 250 g/ha, Postemergence (flood test), scale 0 to 10, 0 is no effect, 10 is complete control
[29] = Rate 250 g/ha, headed Pre-emergence (flood test species), scale 0 to 10 (0 no effect, 10 complete control)
[30] = Rate 500 g/ha, headed Pre-emergence (flood test species), scale 0 to 10 (0 no effect, 10 complete control)
[31] = Rate 500 g/ha, listed under Postemergence (flood test species), scale 0 to 10, 0 no effect, 10 complete control
[32] = Rate 2000 g/ha, Pre-emergence (as headed), scale 0 to 10
[33] = Preemergence, Rate 125 g/ha, 0 is no effect, 10 is complete control
[34] = Preemergence, scale of 0 to 10 where 0 is no effect and 10 is complete control
[35] = Postemergence, scale 0 to 10, 0 is no effect, 10 is complete control
[36] = Postemergence, Rate 62 g/ha, scale 0 to 10, 0 is no effect, 10 is complete control
[37] = Rate 125 g/ha, Postemergence, scale 0 to 10, 0 no effect, 10 complete control
[38] = Rate 1000 g/ha, Pre-emergence (as headed), scale 0 to 10

SMILES: C=CCn1c(=O)on(C(=O)N(c2ccc(Cl)cc2)C(C)C)c1=O [Compound 105]
- Redroot pigweed plant response rating [1, 17]: 0
- Redroot pigweed plant response rating [1, 18]: 0
- Plant response rating, Redroot pigweed [1, 19]: 3
- Plant response rating, Redroot pigweed [1, 20]: 9
- Redroot pigweed plant response rating [1, 21]: 10
- Redroot pigweed plant response rating [1, 22]: 0
- Plant response rating, Redroot pigweed [1, 23]: 0
- Redroot pigweed plant response rating [1, 24]: 3
- Crabgrass plant response rating [2, 17]: 7
- Crabgrass plant response rating [2, 25]: 7
- Crabgrass plant response rating [2, 18]: 2
- Plant response rating, Crabgrass [2, 19]: 8
- Plant response rating, Crabgrass [2, 20]: 8
- Crabgrass plant response rating [2, 21]: 9
- Crabgrass plant response rating [2, 24]: 9
- S. Flatsedge plant response rating [3, 26]: 0
- S. Flatsedge plant response rating ([3]; Pre-emergence, Rate 1000 g/ha, scale 0 to 10 (0 no effect, 10 complete control)): 0
- S. Flatsedge plant response rating [3, 27]: 0
- Plant response rating, S. Flatsedge [3, 28]: 0
- S. Flatsedge plant response rating [3, 29]: 0
- Plant response rating, S. Flatsedge [3, 30]: 0
- S. Flatsedge plant response rating [3, 31]: 0
- S. Flatsedge plant response rating [3, 32]: 0
- Cocklebur plant response rating [4, 17]: 0
- Cocklebur plant response rating [4, 25]: 1
- Cocklebur plant response rating [4, 18]: 0
- Plant response rating, Cocklebur [4, 19]: 0
- Plant response rating, Cocklebur [4, 20]: 0
- Cocklebur plant response rating [4, 21]: 0
- Cocklebur plant response rating [4, 22]: 0
- Cocklebur plant response rating [4, 24]: 4
- Wild oats plant response rating [5, 17]: 0
- Wild oats plant response rating [5, 18]: 2
- Wild oats plant response rating (0 to 10 scale) [5, 33]: 3
- Plant response rating, Wild oats [5, 34]: 3
- Wild oats plant response rating [5, 21]: 9
- Wild oats plant response rating [5, 22]: 0
- Plant response rating, Wild oats [5, 35]: 2
- Wild oats plant response rating [5, 24]: 4
- Bedstraw plant response rating [6, 36]: 0
- Bedstraw plant response rating [6, 25]: 2
- Bedstraw plant response rating [6, 18]: 0
- Plant response rating, Bedstraw [6, 19]: 0
- Plant response rating, Bedstraw [6, 20]: 0
- Bedstraw plant response rating [6, 21]: 5
- Bedstraw plant response rating [6, 37]: 0
- Bedstraw plant response rating [6, 24]: 3
- Rice plant response rating [7, 26]: 0
- Rice plant response rating [7, 27]: 0
- Plant response rating, Rice [7, 28]: 0
- Rice plant response rating [7, 29]: 0
- Plant response rating, Rice [7, 30]: 0
- Rice plant response rating [7, 31]: 0
- Rice plant response rating [7, 38]: 0
- Rice plant response rating [7, 32]: 0
- Blackgrass plant response rating [8, 17]: 6
- Blackgrass plant response rating [8, 25]: 7
- Blackgrass plant response rating [8, 18]: 5
- Plant response rating, Blackgrass [8, 19]: 7
- Plant response rating, Blackgrass [8, 20]: 8
- Blackgrass plant response rating [8, 21]: 10
- Blackgrass plant response rating [8, 22]: 2
- Blackgrass plant response rating [8, 24]: 8
- Velvetleaf plant response rating [9, 17]: 0
- Velvetleaf plant response rating [9, 18]: 0
- Velvetleaf plant response rating (0 to 10 scale) [9, 33]: 4
- Plant response rating, Velvetleaf [9, 34]: 5
- Velvetleaf plant response rating [9, 21]: 6
- Velvetleaf plant response rating [9, 22]: 0
- Plant response rating, Velvetleaf [9, 35]: 3
- Velvetleaf plant response rating [9, 24]: 4
- Wheat plant response rating [10, 17]: 0
- Wheat plant response rating [10, 18]: 0
- Wheat plant response rating (0 to 10 scale) [10, 33]: 0
- Plant response rating, Wheat [10, 34]: 0
- Wheat plant response rating [10, 21]: 2
- Wheat plant response rating [10, 22]: 0
- Plant response rating, Wheat [10, 35]: 0
- Wheat plant response rating [10, 24]: 2
- Corn plant response rating [11, 17]: 0
- Corn plant response rating [11, 25]: 0
- Corn plant response rating [11, 18]: 0
- Plant response rating, Corn [11, 19]: 0
- Plant response rating, Corn [11, 20]: 2
- Corn plant response rating [11, 21]: 3
- Corn plant response rating [11, 22]: 0
- Corn plant response rating [11, 24]: 2
- Morningglory plant response rating [12, 17]: 2
- Morningglory plant response rating [12, 25]: 3
- Morningglory plant response rating [12, 18]: 0
- Plant response rating, Morningglory [12, 19]: 0
- Plant response rating, Morningglory [12, 20]: 0
- Morningglory plant response rating [12, 21]: 0
- Morningglory plant response rating [12, 24]: 4
- Soybean plant response rating [13, 17]: 1
- Soybean plant response rating [13, 18]: 0
- Plant response rating, Soybean [13, 19]: 0
- Plant response rating, Soybean [13, 20]: 0
- Soybean plant response rating [13, 21]: 0
- Soybean plant response rating [13, 22]: 1
- Plant response rating, Soybean [13, 23]: 3
- Soybean plant response rating [13, 24]: 6
- B. signalgrass plant response rating [14, 36]: 0
- B. signalgrass plant response rating [14, 25]: 3
- B. signalgrass plant response rating [14, 18]: 0
- Plant response rating, B. signalgrass [14, 19]: 1
- Plant response rating, B. signalgrass [14, 20]: 5
- B. signalgrass plant response rating [14, 21]: 10
- B. signalgrass plant response rating [14, 37]: 2
- B. signalgrass plant response rating ([14]; Rate 500 g/ha, Postemergence, scale of 0 to 10 where 0 is no effect and 10 is complete control): 3
- Barnyardgrass plant response rating [15, 36]: 0
- Barnyardgrass plant response rating ([15]; Rate 125 g/ha, Postemergence section (flood test species), scale 0 to 10, 0 no effect, 10 complete control): 0
- Barnyardgrass plant response rating [15, 29]: 0
- Plant response rating, Barnyardgrass [15, 30]: 0
- Barnyardgrass plant response rating [15, 31]: 0
- Barnyardgrass plant response rating [15, 38]: 0
- Barnyardgrass plant response rating ([15]; Rate 2000 g/ha, Pre-emergence (as headed), scale 0 to 10, 0 no effect, 10 complete control): 0
- Barnyardgrass plant response rating ([15]; flood test, listed under Postemergence, Rate 250 g/ha, scale 0 to 10, 0 no effect, 10 complete control): 0
- Giant foxtail plant response rating [16, 17]: 3
- Giant foxtail plant response rating [16, 25]: 7
- Giant foxtail plant response rating [16, 18]: 10
- Plant response rating, Giant foxtail [16, 19]: 10
- Plant response rating, Giant foxtail [16, 20]: 10
- Giant foxtail plant response rating [16, 21]: 10
- Giant foxtail plant response rating [16, 22]: 2
- Giant foxtail plant response rating [16, 24]: 8
